Data: US20120003661A1, “METHODS AND DEVICES FOR THE SELECTIVE DETECTION OF MICROORGANISMS” (C3 JIAN, INC., priority 2010, published 2012)
“Also recorded” adds a separate entry of the source.

Each substance was assayed on bacteria, fungi, and/or yeasts. Conditions: microorganism(s) listed as target(s) of the targeting peptide; wrapped target lists given cell by cell.
Format: binding

Row | Substance | Target(s)
1 | 1T-290 (IINQLNLILLRLMEILIL) | A. naeslundii, F. nucleatum, P. gingivalis,; also recorded: S. gordonii, S. mitis,; also recorded: S. mutans, S. oralis, S. salivarious,; also recorded: S. sanguinis
2 | PF-069 (FDPVPLKKDKSASKHSHKHNH) | E. faecalis, C. jejuni
3 | PF-136 (LRGRVGRITACGYPP) | S. epidermidis, M. luteus, P. mirabilis,; also recorded: E. coli, MRSA, E. faecalis,; also recorded: C. jeikeium, C. jejuni, M. smegmatis
4 | 1T-17 (NNAIVYIS) | yeast and hyphal forms
5 | PF-029 (NSTNE) | S. epidermidis, M. luteus, C. albicans,; also recorded: C. jejuni
6 | PF-070 (SMVKSEIVDLLNGEDNDD) | S. epidermidis, C. jejuni
7 | PF-163 (TSWLRAAERQEIGEPTKTFGEKTTSL) | S. epidermidis
8 | 1T-303 (LDYENMDCKKRIRI) | A. naeslundii, F. nucleatum, P. gingivalis,; also recorded: S. gordonii, S. mitis,; also recorded: S. mutans, S. oralis, S. salivarious,; also recorded: S. sanguinis
9 | 1T-276 (ILTLLILGSIGFFILKIKLKLGRF) | A. naeslundii, F. nucleatum, P. gingivalis,; also recorded: S. epidermidis, S. gordonii,; also recorded: gordonii, S. mitis, S. mutans, S. oralis,; also recorded: S. sanguinis
10 | PF-074 (RDIHPIYFMTKD) | S. epidermidis, M. luteus, MRSA
11 | PF-133 (GDPTAGQKPVECP) | S. epidermidis, C. jeikeium, C. jejuni,; also recorded: M. smegmatis
12 | PF-057 (TMIVISIPRFEEYMKARHKKWM) | S. epidermidis, M. luteus, P. mirabilis,; also recorded: E. coli, P. aeruginosa,; also recorded: C. albicans, MRSA, S. pneumoniae,; also recorded: E. faecalis, C. jeikeium,; also recorded: C. jejuni
13 | PF-634 (MPKARPVNHNKKKSKITIKSNFTLFYMFNP) | C. albicans hyphae
14 | TT-310 (TKLKKNNKLLSAKKENTLHTKDK) | F. nucleatum,
15 | 1T-284 (FQYYFSLKRV) | A. naeslundii, F. nucleatum, P. gingivalis,; also recorded: S. gordonii, S. mitis,; also recorded: S. mutans, S. oralis, S. salivarious,; also recorded: S. sanguinis
16 | 1T-259 (EKLKKILLKLAVCGKAWYTL) | F. nucleatum, P. gingivalis, T. denticola,; also recorded: S. mitis, S. mutans, S. oralis,; also recorded: S. sanguinis

Row | Substance | Target(s)
17 | PF-067 (DLIVKVHICFVVKTASGYCYLNKREAQAAI) | S. epidermidis, M. luteus, P. mirabilis,; also recorded: E. coli, P. aeruginosa,; also recorded: C. albicans, MRSA, S. pneumoniae,; also recorded: E. faecalis, C. jeikeium,; also recorded: C. jejuni
18 | PF-004 (ARLSKAIIIAVIVVYHLDVRGLF) | S. epidermidis, B. subtilis, B. fragilis,; also recorded: E. coli, P. aeruginosa, C. albicans,; also recorded: S. pneumoniae, E. faecalis,; also recorded: C. jeikeium
19 | PF-033 (MFIFKTTSKSHFHNNVKSLECIKIPINKNR) | S. epidermidis, M. luteus, E. coli,; also recorded: P. aeruginosa, C. albicans,; also recorded: MRSA, S. pneumoniae
20 | PF-054 (VSISRFIGGGHVFNGNNKRNL) | S. epidermidis, E. coli
21 | 1T-301 (SKLPRVLDASLKL) | F. nucleatum, S. gordonii, S. sanguinis
22 | PF-130 (LQRSDEESMPRRHEKYS) | E. faecalis, C. jeikeium, C. jejuni
23 | PF-161 (RGRALASTATTRPARRRR) | S. epidermidis, M. luteus, E. coli,; also recorded: C. jejuni
24 | 1T-261 (SFEKNKIENNLKIAQAYIYIKPKPRICQA) | F. nucleatum, S. mutans, S. oralis,; also recorded: S. sanguinis
25 | PF-162 (GIRRLHSVENLNREISHRMAGLR) | S. epidermidis, MRSA
26 | PF-143 (LSPRPIIVSRRSRADNNNDWSR) | S. epidermidis, MRSA, C. jeikeium
27 | 1T-267 (RIKEERKNRSYKFFIWRLFDEKTGFI) | A. naeslundii, F. nucleatum, P. gingivalis,; also recorded: T. denticola, S. mitis,; also recorded: S. mutans, S. oralis, S. sanguinis
28 | PF-058 (FADQSQDNA) | S. epidermidis, M. luteus, E. coli,; also recorded: C. albicans, MRSA, C. jeikeium,; also recorded: C. jejuni
29 | 1T-304 (STAGEASRRTASEASRRTAAKLRG) | P. gingivalis
30 | PF-169 (APGSAADSPRSRADD) | S. epidermidis, E. coli, C. albicans,; also recorded: E. faecalis, C. jeikeium
31 | 1T-270 (VHEFDIQKILQNR) | F. nucleatum, S. mutans, S. oralis,; also recorded: S. sanguinis

Same assay, conditions: microorganism(s) that the targeting peptide binds, as listed in Table 2

Row | Substance | Target(s)
32 | PF-C055 (YNLSIYIYFLHTITIAGLITLPFII) | A. naeslundii, F. nucleatum, P. gingivalis,; also recorded: S. mutans
33 | PF-C135 (KNTHAYLRVLRLSSLILSYQASVYPLFAYLCQQKDY) | A. naeslundii, F. nucleatum, P. gingivalis,; also recorded: S. mutans
34 | PF-C181 (KMRAGQVVFIYKLILVLLFYVLQKLFDLKKGCF) | P. gingivalis
35 | PF-C285 (FTIIELKKQKIKHGENNKKTAHPLNEPFCARA) | A. naeslundii, F. nucleatum, P. gingivalis,; also recorded: S. mutans, T. denticola
36 | PF-C273 (KNMLKRRMKQKRLFDEEDRLRVLSKYTKSYY) | A. naeslundii, P. gingivalis, S. mutans,; also recorded: T. denticola
37 | PF-C072 (KKMFSLIRKVNWIFFILFIVLDLTNVFPLIRTILFAILSRQ) | A. naeslundii, F. nucleatum, P. gingivalis,; also recorded: S. mutans, T. denticola
38 | PF-C069 (NALMLREMQLAKNIKVEVTDVLSNKKYC) | A. naeslundii, F. nucleatum, P. gingivalis,; also recorded: S. mutans, T. denticola

Same assay, conditions: microorganism(s) the targeting peptide binds, as listed in Table 2

Row | Substance | Target(s)
39 | 1T-154 (YFSFLEIVGMARR) | P. gingivalis
40 | 1T-48 (KLQVHHGRATHTLLLQPPLCAPGTIR) | S. aureus, S. epidermidis, C. jeikeium,; also recorded: C. xerosis, C. striatum,; also recorded: P. aeruginosa
41 | 1T-90 (RNVIGQVL) | S. gordonii, S. mitis, S. mutans,; also recorded: S. oralis, S. sanguinis
42 | 1T-105 (GEGLPPPVLHLPPPRMSGR) | S. epidermidis, S. gordonii, S. mitis,; also recorded: S. mutans, S. oralis
43 | 1T-238 (IFNRRKFFQYFGLSKEAMVEHIQPFILDIWQIHLF) | A. naeslundii, F. nucleatum, P. gingivalis,; also recorded: S. epidermidis, S. gordonii,; also recorded: S. mitis, S. mutans, S. oralis,; also recorded: S. salivarious, S. sanguinis
44 | 1T-17 (NNAIVYIS) | S. mutans
45 | 1T-165 (CYDSFDFSIFVTFANRMKLSVGS) | A. naeslundii, F. nucleatum, P. gingivalis,; also recorded: S. epidermidis, S. gordonii,; also recorded: S. mitis, S. mutans, S. oralis,; also recorded: S. salivarious, S. sanguinis
46 | 1T-174 (SGGSDTDGSSSGEPGSHSGDL) | A. naeslundii, F. nucleatum, P. gingivalis,; also recorded: T. denticola, S. gordonii,; also recorded: S. mitis, S. mutans, S. oralis,; also recorded: S. salivarious, S. sanguinis
47 | 1T-52 (DEYPAKLPLSDKGATEPRRH) | S. aureus, C. xerosis, P. aeruginosa
48 | 1T-77 (EMRISRIILDFLFLRKK) | S. pneumoniae
49 | 1T-56 (LALIGAGIWMIRKG) | C. xerosis, P. aeruginosa
50 | 1T-119 (SPATQKAPTRAQPSRAPVQDCGDGRPTAAPDDVERLSPR) | S. gordonii, S. mitis, S. mutans,; also recorded: S. oralis
51 | 1T-201 (KRKHENVIVAEEMRVIKN) | S. sanguinis
52 | 1T-74 (DIDWGRKISCAAGVAYGAIDGCATTV) | S. pneumoniae
53 | 1T-193 (LMIFDKHANLKYKYGNRSFGVEAIM) | S. sanguinis
54 | 1T-33 (VRTLTILVIFIFNYLKSISYKLKQPFENNLAQSMISI) | S. aureus, S. epidermidis, C. jeikeium,; also recorded: C. xerosis, C. striatum,; also recorded: P. aeruginosa
55 | 1T-223 (NQKMEINSMTSEKEKMLAGHFHNEANFAVIFKYSLFYNFF) | A. naeslundii, F. nucleatum, P. gingivalis,; also recorded: S. epidermidis, S. gordonii,; also recorded: S. mitis, S. mutans, S. oralis,; also recorded: S. salivarious, S. sanguinis
56 | 1T-197 (TEILNFLITVCADRENWKIKHGLSDSVLLIFFARFTGAEYW) | A. naeslundii, F. nucleatum, P. gingivalis,; also recorded: S. epidermidis, S. gordonii,; also recorded: S. mitis, S. mutans, S. oralis,; also recorded: S. salivarious, S. sanguinis
57 | 1T-234 (DNFYLILKMEERGKSKKTSQTRGFRAFFDIIRKKIKKEDGK) | A. naeslundii, F. nucleatum, P. gingivalis,; also recorded: S. epidermidis, S. gordonii,; also recorded: S. mitis, S. mutans, S. oralis,; also recorded: S. salivarious, S. sanguinis
58 | 1T-179 (TCYPLIQRKTDRAYEA) | A. naeslundii, F. nucleatum, P. gingivalis,; also recorded: T. denticola, S. gordonii,; also recorded: S. mitis, S. mutans, S. oralis,; also recorded: S. salivarious, S. sanguinis
59 | 1T-240 (VILGNGISNIAQTLGQLPNIAWVWIYMVLIAALLEESNVC) | A. naeslundii, F. nucleatum, P. gingivalis,; also recorded: S. epidermidis, S. gordonii,; also recorded: S. mitis, S. mutans, S. oralis,; also recorded: S. salivarious, S. sanguinis
60 | 1T-91 (TSVRPGAAGAAVPAGAAGAAGAGWRWP) | S. mitis, S. mutans, S. oralis, S. sanguinis
61 | 1T-157 (RRFRKTTENREKSKNKKAVLGLSTTSTASY) | A. naeslundii, F. nucleatum, P. gingivalis,; also recorded: T. denticola, S. gordonii,; also recorded: S. mitis, S. mutans, S. oralis,; also recorded: S. salivarious, S. sanguinis
62 | 1T-43 (DRCLSVLSWSPPKVSPLI) | C. jeikium, P. aeruginosa
63 | 1T-99 (MKAWLGQ) | S. gordonii, S. mitis, S. mutans,; also recorded: S. oralis, S. sanguinis
64 | 1T-248 (IGGALNSCG) | S. sanguinis
65 | 1T-32 (VSFLAGWLCLGLAAWRLGNA) | S. mutans
